How the values were obtained:
[1] = system: humans; settings: cited from earlier work
[2] = system: subjects with high HS; assay: Human study: supplementation of serine; type: in vivo
Description: 86 subjects with varying degrees of […] were recruited for studying the response of liver to the HS. Also, liver tissue samples from 12 morbidly obese subjects that underwent bariatric surgery were collected. The mRNA expression of the identified target genes was measured in liver of obese and healthy subjects. In order to show the effect of the serine on the liver, another six subjects were recruited and the subjects' characteristics before and after serine supplementation are presented in Table 3. Subjects included in the studies met all the criteria for NAFLD including exclusion of other chronic liver diseases such as viral hepatitis, risky alcohol consumption, metabolic disorders (e.g., hemochromatosis).
Magnetic resonance experiments were performed using three 1.5 T clinical imagers (1× Sonata and 2× Avanto, Siemens, Erlangen, Germany). Liver fat content was determined using proton magnetic resonance spectroscopy and subcutaneous abdominal and visceral fat was measured by magnetic resonance imaging (Adiels et al, 2006; Lundbom et al, 2011).
(§1) The effect of short-term dietary supplementation with serine on HS and fasting levels of Plasma markers of liver functions was assessed in six subjects with high. HS. Each patient received one oral dose of ˜20 g of L-serine (200 mg/kg) per day for 14 days.
as §1, with “To identify the unique contribution of serine supplementation in decreasing HS, the” for “The”, “plasma” for “Plasma”, “high” for “high.”

[3] = 200 mg/kg/day oral 14 days, six subjects

**Q.** With `CC(=O)N[C@@H](CS)C(=O)O` [NAC, N-acetyl-L-cysteine, reference compound] as the molecule, how does the “Daily dosage shown to be safe in humans” value ([1]; NAC) read?
**A.** Its value is 4-6 grams.

**Q.** Which “Plasma level of ALP after supplementation (change in words)” value [2, 3] does the source give for `N[C@@H](CO)C(=O)O` [serine, L-serine] here?
**A.** The value was “significantly decreased”.

**Q.** And the “Plasma level of ALT after supplementation (change in words)” value [2, 3]?
**A.** The value was “significantly decreased”.

**Q.** What about the “Plasma level of AST after supplementation (change in words)” value [2, 3] of the same molecule?
**A.** The value was “significantly decreased”.

**Q.** And the “Plasma ALT, response per subject” value ([2]; 200 mg/kg/day oral 14 days, six subjects, FIG. 5C panel H)?
**A.** Its value is “consistently decreased in all six subjects”.

**Q.** And the “Plasma AST, response per subject” value ([2]; 200 mg/kg/day oral 14 days, six subjects, FIG. 5C panel I)?
**A.** Its value is “consistently decreased in all six subjects”.

**Q.** And the “Plasma ALP, response per subject” value ([2]; 200 mg/kg/day oral 14 days, six subjects, FIG. 5C panel J)?
**A.** The value was “decreased in five of the participating subjects”.

**Q.** And the “Plasma TGs, response per subject” value ([2]; 200 mg/kg/day oral 14 days, six subjects, FIG. 5C panel K, no change in the remaining one subject)?
**A.** Its value is “decreased in five of the studied subjects”.

**Q.** What about the “Plasma level of serine after supplementation” value ([2]; 200 mg/kg/day oral 14 days, six subjects, change in words) of the same molecule?
**A.** The value was “significantly increased”.

**Q.** And the “Markers of liver function after supplementation” value ([2]; NAFLD patients, proof-of-concept human study)?
**A.** Its value is “significantly improved”.

**Q.** What about the “HDL cholesterol” value ([2]; after serine, n = 6, 200 mg/kg/day oral 14 days, mean ± SD, baseline 1.00 ± 0.21, P 0.30) of the same molecule?
**A.** Its value is 1.02 ± 0.18 mmol/L.

**Q.** What about the HOMA-IR ([2]; after serine, n = 6, 200 mg/kg/day oral 14 days, mean ± SD, baseline 2.15 ± 1.85, P 0.18) of the same molecule?
**A.** Its HOMA-IR is 1.54 ± 1.49.

**Q.** What about the “LDL cholesterol” value ([2]; after serine, n = 6, 200 mg/kg/day oral 14 days, mean ± SD, baseline 3.68 ± 0.80, P 0.50) of the same molecule?
**A.** The value was 3.85 ± 0.94 mmol/L.

**Q.** And the “Total cholesterol” value ([2]; after serine, n = 6, 200 mg/kg/day oral 14 days, mean ± SD, baseline 6.23 ± 1.49, P 0.18)?
**A.** Its value is 5.85 ± 1.15 mmol/L.

**Q.** What about the “Fasting plasma glucose” value ([2]; after serine, n = 6, 200 mg/kg/day oral 14 days, mean ± SD, baseline 6.57 ± 1.41, P 0.25) of the same molecule?
**A.** Its value is 6.33 ± 1.41 mmol/L.

**Q.** What about the “Plasma triglycerides (TG)” value ([2]; after serine, n = 6, 200 mg/kg/day oral 14 days, mean ± SD, baseline 6.90 ± 6.65, P 0.13) of the same molecule?
**A.** Its value is 3.63 ± 1.81 mmol/L.

**Q.** What about the “Bilirubin” value ([2]; after serine, n = 6, 200 mg/kg/day oral 14 days, mean ± SD, baseline 7.33 ± 4.11, P 0.13) of the same molecule?
**A.** Its value is 6.48 ± 3.94 µmol/L.

**Q.** What about the “Fasting plasma insulin (FPI)” value ([2]; after serine, n = 6, 200 mg/kg/day oral 14 days, mean ± SD, baseline 46.3 ± 33.8, P 0.23) of the same molecule?
**A.** Its value is 34.7 ± 25.2 pmol/L.

**Q.** And the “γ-Glutamyl transferase (μGT) (U/L)” value ([2]; after serine, n = 6, 200 mg/kg/day oral 14 days, mean ± SD, baseline 63.8 ± 12.9, P 0.30)?
**A.** The value was 62.3 ± 16.3 U/L.

**Q.** And the “Liver fat (%)” value ([2]; after serine, n = 6, L-serine 200 mg/kg oral once per day for 14 days, mean ± SD, baseline 26.8 ± 6.0, P<0.05)?
**A.** The value was 20.4 ± 7.0%.

**Q.** What about the “HS (hepatic steatosis) after serine supplementation (change in words)” value ([2]; magnetic resonance spectroscopy before and after, 200 mg/kg/day oral 14 days) of the same molecule?
**A.** Its value is “significantly decreased”.

**Q.** And the “HS, response per patient” value ([2]; magnetic resonance spectroscopy, 200 mg/kg/day oral 14 days, six patients)?
**A.** Its value is “decreased in all six patients”.

**Q.** And the “Aspartate aminotransferase (AST) (U/L)” value ([2]; plasma, after serine, n = 6, 200 mg/kg/day oral 14 days, mean ± SD, baseline 34.5 ± 8.10, P<0.05)?
**A.** The value was 27.4 ± 8.4 U/L.

**Q.** What about the “Alanine aminotransferase (ALT) (U/L)” value ([2]; plasma, after serine, n = 6, 200 mg/kg/day oral 14 days, mean ± SD, baseline 50.8 ± 15.2, P<0.05) of the same molecule?
**A.** The value was 37.6 ± 5.3 U/L.

**Q.** What about the “Alkaline phosphatase (ALP) (U/L)” value ([2]; plasma, after serine, n = 6, 200 mg/kg/day oral 14 days, mean ± SD, baseline 76.3 ± 17.2, P<0.05) of the same molecule?
**A.** Its value is 71.3 ± 17.9 U/L.

**Q.** And the “Relative decrease in HS” value ([2]; range over the six NAFLD patients, 200 mg/kg/day oral 14 days)?
**A.** Its value is 1.0-23%.

**Q.** And the “Tolerability of the supplementation” value ([2]; ~20 g L-serine (200 mg/kg) oral once per day for 14 days, six subjects)?
**A.** The value was “well tolerated by all the subjects”.

**Q.** What about the “Doses studied in humans and shown to be safe” value ([1]; serine, around 25-30 g/day) of the same molecule?
**A.** The value was “up to 400 mg/kg/day”.
